The numbers were not newly measured in patent publication US20080138409A1, “OLANZAPINE PHARMACEUTICAL COMPOSITION” (priority 2006, published 2008), which cites them from elsewhere.

For this series the following is noted: pH 6.8; free base.

Consider `Cc1cc2c(s1)Nc1ccccc1N=C2N1CCN(C)CC1` [Olanzapine], for which the solubility entry was “about 0.02 mg/ml”.
